“And” between values parts separate entries of the source, which are not always exact repeats. Equal values may be shown once. Read-outs that look alike come from different tables or passages of the source.
Experiments:
5-LOX = biological target: T1, 5-LOX (Homo sapiens, UniProt P09917); assay: 5-LOX fluorescent assay (in vitro lipoxygenase inhibition); format: biochemical; details: recombinant 5-LOX cell lysate, 20 μM AA, DHR123 fluorescence; several values in a cell = repeat determinations; read-out: IC50 (μM) values for in vitro lipoxygenase inhibition, 5-LOX
T1 sequence (P09917 1-674): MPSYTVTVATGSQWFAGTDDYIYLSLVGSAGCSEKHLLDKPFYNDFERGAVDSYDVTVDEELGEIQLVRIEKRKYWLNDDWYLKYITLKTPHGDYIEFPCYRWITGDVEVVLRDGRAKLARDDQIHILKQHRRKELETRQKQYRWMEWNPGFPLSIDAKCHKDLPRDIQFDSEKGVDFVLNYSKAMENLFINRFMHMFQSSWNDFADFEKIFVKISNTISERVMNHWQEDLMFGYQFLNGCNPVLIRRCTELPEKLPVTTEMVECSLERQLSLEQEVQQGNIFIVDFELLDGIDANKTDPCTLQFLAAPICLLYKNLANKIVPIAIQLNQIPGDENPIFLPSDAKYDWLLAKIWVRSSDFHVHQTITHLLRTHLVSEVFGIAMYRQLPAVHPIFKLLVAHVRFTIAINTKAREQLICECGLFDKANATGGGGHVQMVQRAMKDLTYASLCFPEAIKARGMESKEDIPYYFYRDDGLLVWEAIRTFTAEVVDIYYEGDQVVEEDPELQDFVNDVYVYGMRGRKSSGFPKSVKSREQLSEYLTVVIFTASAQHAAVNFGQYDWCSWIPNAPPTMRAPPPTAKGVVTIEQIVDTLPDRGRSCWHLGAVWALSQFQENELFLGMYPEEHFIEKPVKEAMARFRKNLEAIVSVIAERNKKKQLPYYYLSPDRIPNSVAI
Description: 5-LOX FI assay Fluorescent Assay
The enzyme assay (100 μL) contained 50 mM Tris, pH 7.5, 0.1 mM EDTA, 0.3 mM CaCl2, 20 μM AA, 100 μM ATP, 1 μM DHR123, and recombinant 5-LOX cell lysate (0.5 μL/100 μL). Inhibitors (dissolved in DMSO) were plated at 1 μL into 96-well assay microplates followed by a 40 μL addition of a solution containing 5-LOX enzyme. Enzyme was pre-incubated with compounds for 15 mins. The assay was initiated by the addition of a 40 μL substrate solution containing AA and ATP, and 20 μL addition of a solution containing DHR123. […] Percent inhibition was calculated for each compound dose for IC50 curve fitting using 4 Parameter Logistic Model or Sigmoidal Dose-Response Model.

12-LOX = biological target: T2, 12-LOX (Homo sapiens, UniProt P18054); assay: 12-LOX fluorescent assay (in vitro lipoxygenase inhibition); format: biochemical
T2 sequence (P18054 1-663): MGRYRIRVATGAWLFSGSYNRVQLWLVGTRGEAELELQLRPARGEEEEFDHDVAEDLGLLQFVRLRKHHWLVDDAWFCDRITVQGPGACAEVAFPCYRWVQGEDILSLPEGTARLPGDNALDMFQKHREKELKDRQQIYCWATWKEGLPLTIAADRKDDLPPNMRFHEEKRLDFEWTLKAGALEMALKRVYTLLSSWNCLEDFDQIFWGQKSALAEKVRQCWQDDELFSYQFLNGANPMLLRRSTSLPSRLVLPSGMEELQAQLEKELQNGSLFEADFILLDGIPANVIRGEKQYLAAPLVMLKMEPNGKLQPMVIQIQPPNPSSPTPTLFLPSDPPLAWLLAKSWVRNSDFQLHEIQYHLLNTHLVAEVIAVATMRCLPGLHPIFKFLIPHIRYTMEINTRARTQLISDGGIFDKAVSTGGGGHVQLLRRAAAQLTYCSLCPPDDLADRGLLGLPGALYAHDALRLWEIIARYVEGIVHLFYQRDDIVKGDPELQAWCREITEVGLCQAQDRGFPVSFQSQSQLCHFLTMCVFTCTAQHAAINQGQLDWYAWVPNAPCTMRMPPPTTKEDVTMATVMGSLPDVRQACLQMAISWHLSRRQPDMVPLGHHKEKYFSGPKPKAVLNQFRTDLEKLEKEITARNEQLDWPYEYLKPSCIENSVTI
Description: 12-LOX/15-LOX Fluorescent Assay
The enzyme assay (100 ul) contained 50 mM Tris, pH 7.5, 0.05% Tween-20, 20 μM AA/LA, 1 μM DHR123, and 100 nM recombinant 12-LOX enzyme/50 nM recombinant 15-LOX enzyme. Inhibitors (dissolved in DMSO) were plated at 1 μL into 96-well assay microplates followed by a 40 μL addition of a solution containing 12-LOX/15-LOX enzyme. Enzyme was pre-incubated with compounds for 15 mins. The assay was initiated by the addition of a 40 μL substrate solution containing AA/LA, and 20μL addition of a solution containing DHR123. […] Percent inhibition was calculated for each compound dose for IC50 curve fitting using 4 Parameter Logistic Model or Sigmoidal Dose-Response Model.

[1] = 100 nM recombinant 12-LOX, 20 μM AA, DHR123 fluorescence, several values in a cell = repeat determinations, read-out: IC50 (μM) values for in vitro lipoxygenase inhibition, 12-LOX

Compound: c1ccc(CNc2ccc(NCCn3cncn3)c(-c3cccnc3)c2)cc1 [SS20308-0216-01, N^1-(2-(1H-1,2,4-triazol-1-yl)ethyl)-N^4-benzyl-2-(pyridin-3-yl)benzene-1,4-diamine]
- IC50 (5-LOX): 0.04 µM
- IC50 (12-LOX; [1]): 0.03 µM

Compound: c1ccc(-c2cc(NCC3CCCCC3)ccc2NCCn2cncn2)cc1 [SS20308-0217-01, N^2-(2-(1H-1,2,4-triazol-1-yl)ethyl)-N^5-(cyclohexylmethyl)-[1,1′-biphenyl]-2,5-diamine]
- IC50 (5-LOX): 0.02 µM and 0.06 µM
- IC50 (12-LOX; [1]): 0.02 µM and 0.04 µM

Compound: c1ccc(CNc2ccc(NCCn3cncn3)c(-c3cccs3)n2)cc1 [SS20308-0218-01, N^5-(2-(1H-1,2,4-triazol-1-yl)ethyl)-N^2-benzyl-6-(thiophen-2-yl)pyridine-2,5-diamine]
- IC50 (5-LOX): 0.02 µM
- IC50 (12-LOX; [1]): 0.01 µM

Compound: c1ccc(CNc2cnc(-c3ccccc3)c(NCCn3cncn3)c2)cc1 [SS20308-0219-01, N^3-(2-(1H-1,2,4-triazol-1-yl)ethyl)-N^5-benzyl-2-phenylpyridine-3,5-diamine]
- IC50 (5-LOX): 4.78 µM
- IC50 (12-LOX; [1]): 2.68 µM

Compound: c1ccc(CNc2ccc(-c3ccccc3)c(NCCn3cncn3)n2)cc1 [SS20308-0221-01, N^2-(2-(1H-1,2,4-triazol-1-yl)ethyl)-N^6-benzyl-3-phenylpyridine-2,6-diamine]
- IC50 (5-LOX): 0.66 µM
- IC50 (12-LOX; [1]): 0.11 µM

Compound: c1ccc(Nc2cccc(NCCn3cncn3)c2)cc1 [SS20308-0223-01, N^1-(2-(1H-1,2,4-triazol-1-yl)ethyl)-N^3-phenylbenzene-1,3-diamine]
- IC50 (5-LOX): 0.49 µM
- IC50 (12-LOX; [1]): 0.11 µM

Compound: Fc1ccc(CNc2ccc(NCCn3cncn3)c(-c3cccc4cc[nH]c34)c2)cc1 [SS20308-0225-01, N^1-(2-(1H-1,2,4-triazol-1-yl)ethyl)-N^4-(4-fluorobenzyl)-2-(1H-indol-7-yl)benzene-1,4-diamine]
- IC50 (5-LOX): 0.05 µM
- IC50 (12-LOX; [1]): 0.03 µM

Compound: FC(F)(F)C(Nc1ccc(NCCn2cncn2)c(-c2ccccc2)c1)c1ccccc1 (centres unmarked) [SS20308-0226-01, N^2-(2-(1H-1,2,4-triazol-1-yl)ethyl)-N^5-(2,2,2-trifluoro-1-phenylethyl)-[1,1′-biphenyl]-2,5-diamine]
- IC50 (5-LOX): 0.14 µM
- IC50 (12-LOX; [1]): 0.06 µM

Compound: Fc1ccc(CNc2cc(F)c(NCCn3cncn3)c(-c3ccccc3)c2)cc1 [SS20308-0227-01, N^2-(2-(1H-1,2,4-triazol-1-yl)ethyl)-3-fluoro-N^5-(4-fluorobenzyl)-[1,1′-biphenyl]-2,5-diamine]
- IC50 (5-LOX): 0.39 µM
- IC50 (12-LOX; [1]): 0.03 µM

Compound: Fc1ccc(CNc2ccc(NCCn3cncn3)c(-c3ccccc3)c2F)cc1 [SS20308-0228-01, N^2-(2-(1H-1,2,4-triazol-1-yl)ethyl)-6-fluoro-N^5-(4-fluorobenzyl)-[1,1′-biphenyl]-2,5-diamine]
- IC50 (5-LOX): 0.16 µM
- IC50 (12-LOX; [1]): 0.02 µM

Compound: Fc1ccc(CNc2cc(-c3ccccc3)c(NCCn3cncn3)cc2F)cc1 [SS20308-0229-01, N2-(2-(1H-1,2,4-triazol-1-yl)ethyl)-4-fluoro-N5-(4-fluorobenzyl)-[1,1′-biphenyl]-2,5-diamine]
- IC50 (5-LOX): 0.08 µM and 0.26 µM
- IC50 (12-LOX; [1]): 0.02 µM

Compound: Fc1ccc(C(Nc2ccc(NCCn3cncn3)cc2)C(F)(F)F)cc1 (centres unmarked) [SS20308-0232-01, N^1-(2-(1H-1,2,4-triazol-1-yl)ethyl)-N^4-(2,2,2-trifluoro-1-(4-fluorophenyl)ethyl)benzene-1,4-diamine]
- IC50 (5-LOX): 0.69 µM
- IC50 (12-LOX; [1]): 0.14 µM

Compound: Fc1ccc(CNc2ccc(NCCCn3cncn3)c(F)c2)cc1 [SS20308-0236-01, N^1-(3-(1H-1,2,4-triazol-1-yl)propyl)-2-fluoro-N^4-(4-fluorobenzyl)benzene-1,4-diamine]
- IC50 (5-LOX): 0.1 µM and 0.18 µM
- IC50 (12-LOX; [1]): 0.04 µM and 0.03 µM

Compound: Cc1ccc(NCc2ccc(F)cc2)cc1NCCCn1cncn1 [SS20308-0237-01, N^3-(3-(1H-1,2,4-triazol-1-yl)propyl)-N^1-(4-fluorobenzyl)-4-methylbenzene-1,3-diamine]
- IC50 (5-LOX): 0.28 µM
- IC50 (12-LOX; [1]): 0.18 µM

Compound: c1cc(NCCCn2cncn2)cc(NC2CCCCC2)c1 [SS20308-0238-01, N^1-(3-(1H-1,2,4-triazol-1-yl)propyl)-N^3-cyclohexylbenzene-1,3-diamine]
- IC50 (5-LOX): 0.4 µM
- IC50 (12-LOX; [1]): 0.17 µM

Compound: c1ncn(CCCNc2ccc(NC3CCCCC3)cc2)n1 [SS20308-0239-01, N^1-(3-(1H-1,2,4-triazol-1-yl)propyl)-N^4-cyclohexylbenzene-1,4-diamine]
- IC50 (5-LOX): 0.04 µM and 0.07 µM
- IC50 (12-LOX): 0.03 µM

Compound: c1ncn(CCCNc2ccc(NCC3CCCCC3)cc2)n1 [SS20308-0240-01, N^1-(3-(1H-1,2,4-triazol-1-yl)propyl)-N^4-(cyclohexylmethyl)benzene-1,4-diamine]
- IC50 (5-LOX): 0.02 µM and 0.03 µM
- IC50 (12-LOX; [1]): 0.01 µM

Compound: c1cc(NCC2(Cn3cncn3)COC2)cc(NC2CCCCC2)c1 [SS20308-0241-01, N^1-((3-((1H-1,2,4-triazol-1-yl)methyl)oxetan-3-yl)methyl)-N^3-cyclohexylbenzene-1,3-diamine]
- IC50 (5-LOX): 1.09 µM
- IC50 (12-LOX; [1]): 0.36 µM

Compound: c1ncn(CC2(CNc3ccc(NCC4CCCCC4)cc3)COC2)n1 [SS20308-0242-01, N^1-((3-((1H-1,2,4-triazol-1-yl)methyl)oxetan-3-yl)methyl)-N^4-(cyclohexylmethyl)benzene-1,4-diamine]
- IC50 (5-LOX): 0.09 µM
- IC50 (12-LOX; [1]): 0.05 µM

Compound: FC(F)(F)C(Nc1ccc(NCCn2cncn2)cn1)c1ccccc1 (centres unmarked) [SS20308-0245-01, N^5-(2-(1H-1,2,4-triazol-1-yl)ethyl)-N^2-(2,2,2-trifluoro-1-phenylethyl)pyridine-2,5-diamine]
- IC50 (5-LOX): 1.19 µM
- IC50 (12-LOX; [1]): 0.51 µM

Compound: Fc1ccc(CNc2ccc(NCCn3cncn3)cn2)cc1 [SS20308-0246-01, N^5-(2-(1H-1,2,4-triazol-1-yl)ethyl)-N^2-(4-fluorobenzyl)pyridine-2,5-diamine]
- IC50 (5-LOX): 0.51 µM
- IC50 (12-LOX; [1]): 0.08 µM

Compound: FC1(F)CCC(CNc2ccc(NCCn3cncn3)cn2)CC1 [SS20308-0247-01, N^5-(2-(1H-1,2,4-triazol-1-yl)ethyl)-N^2-((4,4-difluorocyclohexyl)methyl)pyridine-2,5-diamine]
- IC50 (5-LOX): 0.63 µM
- IC50 (12-LOX; [1]): 0.13 µM

Compound: Fc1ccc(Nc2ccc(NCCn3cncn3)cn2)cc1 [SS20308-0248-01, N^5-(2-(1H-1,2,4-triazol-1-yl)ethyl)-N^2-(4-fluorophenyl)pyridine-2,5-diamine]
- IC50 (5-LOX): 0.63 µM
- IC50 (12-LOX; [1]): 0.1 µM

Compound: Fc1ccc(CNc2cccc(NCCn3cncn3)n2)cc1 [SS20308-0249-01, N^2-(2-(1H-1,2,4-triazol-1-yl)ethyl)-N^6-(4-fluorobenzyl)pyridine-2,6-diamine]
- IC50 (5-LOX): 1.59 µM
- IC50 (12-LOX; [1]): 0.37 µM

Compound: FC1(F)CCC(CNc2cccc(NCCn3cncn3)n2)CC1 [SS20308-0250-01, N^2-(2-(1H-1,2,4-triazol-1-yl)ethyl)-N^6-((4,4-difluorocyclohexyl)methyl)pyridine-2,6-diamine]
- IC50 (5-LOX): 1.26 µM
- IC50 (12-LOX; [1]): 0.32 µM
